We go through one compound from ChEMBL document CHEMBL5233238, “Research progress on sirtuins family members and cell senescence” (2020).

What all share (type): functional
Assay [1] deals with Caenorhabditis elegans. The assay is described as follows: Regulation of metabolic activity in […] assessed as increasing in average life span at 50 mol/L relative to control.
For assay [2], the system named is Caenorhabditis elegans. The assay is described as follows: Regulation of metabolic activity in […] assessed as increasing in average life span at 100 mol/L relative to control.
Assay [3] has as its system Caenorhabditis elegans. The assay is described as follows: Regulation of metabolic activity in […] assessed as increasing in average life span at 25 mol/L relative to control.

Turning to `CN(C)C(=N)NC(=N)N` [METFORMIN], the Activity amounted to 36% with Caenorhabditis elegans [1], 3% with Caenorhabditis elegans [2] and 18% with Caenorhabditis elegans [3].
